Source: patent US6355815B1, “Method of producing hydrogen peroxide and reaction promoters therefor” (Degussa AG, priority 1998, dated 2002)

Legend:
[1] = Oxidation stability of the quinone (oxygen, radical initiator, 150° C.); assay type: physicochemical; conditions: 0.04 mole quinone in 100 ml 1,2-dichlorobenzene, 10 mg azo-bis-isobutyronitrile, excess oxygen, after 24 h
Protocol: After the addition of 10 mg azo-bis-isobutyronitrile as radical initiator the mixture was agitated under excess of oxygen at 150° C. with a gassing agitator. After 24 h the quinone content was determined by chromatography.

[2] = Maximum H2O2 capacity in continuous cyclic anthraquinone process test system; conditions: compared with EAQ
Protocol: A working solution consisting of 75% by volume aromatic benzine (C9/C10-alkyl aromatic mixture), 25% by volume tris (2-ethylhexylphosphate), 0.11 mol/l 2-ethylanthraquinone, 0.29 mol/l 2-ethyltetrahydroanthraquinone, 0.13 mol/l 2-isohexylanthraquinone and 0.12 mol/l 2-isohexyltetrahydroanthraquinone was tested in a test system for the cyclic process of the anthraquinone method for producing hydrogen peroxide, consisting of the method steps of hydrogenation, oxidation, and extraction as well as of drying, regeneration and purification concerning the maximum H2O2 production capacity obtainable in continuous operation (g H2O2 produced per liter working solution). […]
The maximum H2O2 capacity of a working solution consisting of 75 by volume aromatic benzine (C9/C10-alkyl aromatic mixture), 25% by volume tris (2-ethylhexyl) phosphate, 0.12 mol/l 2-ethylanthraquinone, 0.28 mol/l 2-ethyltetrahydroanthraquinone, 0.13 mol/l 2-amylanthraquinone and 0.12 mol/l 2-amyltetrahydroanthraquinone was determined analogously to example 6. […]
The maximum H2O2 capacity of a working solution whose solvent system was based essentially on a C9/C10-aromatic benzine and tetrabutylurea (volumetric ratio AB:TBH approximately 3:1) was determined analogously to example 6 at a hydrogenation temperature of 60° C. […]

Row | Structure (SMILES) | residual quinone content [1] [%] | oxidative degradation under the conditions of the cyclic anthraquinone process [2]
1 | CC(C)=CCCc1ccc2c(c1)C(=O)c1ccccc1C2=O [IHEAQ, 2-(4-methyl-3-pentenyl) anthraquinone] | 41 | not degraded oxidatively more than EAQ
2 | CCc1ccc2c(c1)C(=O)c1ccccc1C2=O [EAQ, 2-ethyl anthraquinone, reference compound] | 90 | 
